Experimental data published in patent US20080318943A1, “Compounds and Uses Thereof - 848” (ASTRAZENECA AB, priority 2007, published 2008).

Legend:
[1] = target: T1, GABAA2 receptors (α2, β3, γ2 receptor subunits transfected into Sf9 cells) (Homo sapiens, UniProt P18507+P47869); assay: GABAA2 Binding Method ([3H]-Flunitrazepam displacement); conditions: [3H]-Flunitrazepam ~2 nM, α2β3γ2 Sf9 membranes, 1 hr at 4° C.
T1 construct: host or cells: Sf9 cells (membranes)
How it was run: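 Membranes from Sf9 cells expressing α2β3γ2 GABAA receptors incubated with ~2 nM (final) [3H]-flunitrazepam and test compound 1 h at 4 °C, then filtered on GF/B plates with cold-buffer washes. Flumazenil-defined controls; percent of control, IC50 and Ki calculated.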

GABAA receptor α1β2γ2 = target: T2, GABAA receptor α1β2γ2 (Homo sapiens, UniProt P14867+P18507); assay: Two-electrode voltage-clamp potentiation of GABA EC10 current in Xenopus oocytes, GABAA1; assay type: cell-based; conditions: percentage potentiation of GABA EC10 current divided by that of diazepam
T2 construct: expressed in transfected cells; host or cells: Xenopus laevis oocytes injected with cRNA
How it was run: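 Human GABAA receptors expressed in Xenopus oocytes by cRNA injection (α:β:γ molar ratio ~1:1:10 for α1β2γ2, 1:1:1 for α2β3γ2), recorded 2-10 days later by two-electrode voltage clamp at −60 mV in ND-96, pH 7.5. Modulator preapplied 30 s before GABA at per-oocyte EC10. Peak-current percent potentiation over GABA alone, normalised to diazepam.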

GABAA receptor α2β3γ2 = target: T3, GABAA receptor α2β3γ2 (Homo sapiens, UniProt P18507+P47869); assay: Two-electrode voltage-clamp potentiation of GABA EC10 current in Xenopus oocytes, GABAA2; assay type: cell-based; conditions: percentage potentiation of GABA EC10 current divided by that of diazepam
T3 construct: expressed in transfected cells; host or cells: Xenopus laevis oocytes injected with cRNA
Description: GABAA receptors were heterologously expressed in Xenopus oocytes by injecting cRNA corresponding to human α1, α2, α3, α5, β2, P3 and γ2 subunits of the GABAA receptor genes. The specific subunit combinations (subtypes) were as follows: α1β2γ2, α2β3γ2, α3β3γ2, and α5β3γ2. The EC10 of GABA is approximated for each cell. Stability of GABA-mediated (EC10) current is established. Modulatory effect of test compound is determined and compared across subtypes. […] Thus, the assay can characterize modulatory effects and determine subtype selectivity of test compounds on major subtypes of GABAA receptors.
Xenopus laevis frogs (Xenopus I, Kalamazoo, Mich.) were anesthetized using 0.15% tricaine. Surgically removed ovarian lobes were teased out in OR2 solution (82 NaCl, 2.5 KCl, 5 HEPES, 1.5 NaH2PO4, 1 MgCl2, 0.1 EDTA, in mM, pH 7.4). The oocytes were defolliculated by incubation in 25 mL OR2 containing 0.2% collagenase 1A (SIGMA) two times for about 60 minutes on a platform shaker and stored in Leibovitz's L-15 medium. Oocytes were injected the following day in 0.5× Leibovitz's L-15 medium containing […] gentamycin, 10 units/ml penicillin, and […] streptomycin.
Capped cRNAs from the linearized vectors containing human α1, β2 and γ2 subunits of the GABAA receptor genes were mixed in ratio of […]. Oocytes were injected with 25-50 nL of mixed RNA with an appx molar ratio for α1, β2, and γ2 as 1:1:10. Oocyte recordings were done 2-10 days after injection. The same methods apply to subtypes derived from α2β3γ2, α3β3γ2, and α5β3γ2, except for 1:1:1 ratio was used for α, β, and γ subunits.
All measurements were done in a medium containing ND-96 (96 NaCl, 2 KCl, 1.8 CaCl2.2H2O, 1 MgCl2.6H2O, 5 HEPES, in mM, pH 7.5). Two-electrode voltage-clamp recording was carried out using OpusXpress amplifier (Axon Instruments, Foster City, Calif.), which allows simultaneous recording from 8 oocytes. Oocytes were impaled with two electrodes of 1-2 MΩ tip resistance when filled with 3M KCl. Recordings were begun when membrane potential became stable at potentials negative to −50-−60 mV. Membrane potential was held at −60 mV. […] The concentration of GABA corresponded to the EC10 value calculated for each oocyte. The modulator pulses started 30 s before the GABA pulse so as to allow preincubation with the modulator. A set of 3 pulses with just GABA without modulator was given prior to the modulator-containing pulses to define the baseline GABA response. Two oocytes per each experiment were dedicated to observe the effect of diazepam on GABA response to ensure the presence of γ2 subunit in the GABAA pentameric complex, which imparts diazepam sensitivity to the complex.
Current amplitude (i) was measured from baseline to peak using Clampfit (Axon Inst., Foster City, Calif.). Potentiation was calculated as percent change from the baseline GABA current flux 100×(imod/icontrol)−1) where imod=current mediated by modulator+GABA and icontrol=current mediated by GABA alone. […] Similarly, a value of −50% potentiation means the presence of modulator caused a 50% decrease in the control current. Various other data shown here were fitted and plotted using GraphPad Prism (GraphPad Software, Inc. San Diego, Calif.). The percentage potentiation was converted to relative potentiation by dividing it with percentage potentiation value obtained from the same assay with diazepam as a control.

T1 sequence (P47869 29-451): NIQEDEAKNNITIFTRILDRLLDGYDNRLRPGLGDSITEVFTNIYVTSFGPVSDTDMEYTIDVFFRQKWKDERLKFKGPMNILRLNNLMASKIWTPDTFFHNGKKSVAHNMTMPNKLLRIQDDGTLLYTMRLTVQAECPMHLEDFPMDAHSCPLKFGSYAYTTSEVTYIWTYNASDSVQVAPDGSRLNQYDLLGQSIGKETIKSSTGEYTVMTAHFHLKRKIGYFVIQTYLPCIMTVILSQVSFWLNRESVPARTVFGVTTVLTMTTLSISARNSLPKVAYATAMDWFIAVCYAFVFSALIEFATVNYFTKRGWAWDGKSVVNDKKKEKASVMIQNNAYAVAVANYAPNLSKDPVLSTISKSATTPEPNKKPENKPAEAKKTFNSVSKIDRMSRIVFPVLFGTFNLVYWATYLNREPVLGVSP
T1 sequence (P28472 26-473 partner): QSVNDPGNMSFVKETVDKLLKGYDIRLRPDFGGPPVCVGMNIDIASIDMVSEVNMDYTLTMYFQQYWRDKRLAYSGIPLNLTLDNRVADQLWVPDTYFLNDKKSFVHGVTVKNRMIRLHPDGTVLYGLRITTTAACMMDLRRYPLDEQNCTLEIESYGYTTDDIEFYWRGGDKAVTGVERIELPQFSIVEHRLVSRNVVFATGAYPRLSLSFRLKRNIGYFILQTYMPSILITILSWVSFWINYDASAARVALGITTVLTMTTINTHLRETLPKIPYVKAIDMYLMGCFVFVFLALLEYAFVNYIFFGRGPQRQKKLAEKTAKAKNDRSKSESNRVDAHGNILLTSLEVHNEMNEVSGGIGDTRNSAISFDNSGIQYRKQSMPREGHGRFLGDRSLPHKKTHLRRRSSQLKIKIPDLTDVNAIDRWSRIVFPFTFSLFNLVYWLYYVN
T1 sequence (P18507 40-475): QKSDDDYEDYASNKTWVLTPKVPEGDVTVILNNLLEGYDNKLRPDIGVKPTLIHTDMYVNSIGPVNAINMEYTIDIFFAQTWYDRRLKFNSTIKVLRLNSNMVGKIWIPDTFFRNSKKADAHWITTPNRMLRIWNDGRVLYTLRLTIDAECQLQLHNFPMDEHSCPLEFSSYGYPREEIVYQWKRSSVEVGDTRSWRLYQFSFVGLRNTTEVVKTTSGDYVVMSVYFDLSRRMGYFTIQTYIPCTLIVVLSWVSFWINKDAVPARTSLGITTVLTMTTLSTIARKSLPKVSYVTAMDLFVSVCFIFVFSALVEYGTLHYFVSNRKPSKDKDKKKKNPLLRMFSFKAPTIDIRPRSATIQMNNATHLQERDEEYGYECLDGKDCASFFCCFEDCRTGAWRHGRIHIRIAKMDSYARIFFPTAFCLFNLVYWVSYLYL
T3 sequence (P47869 29-451): as the sequence (P47869 29-451) above
T3 sequence (P28472 26-473 partner): as the sequence (P28472 26-473 partner) above
T3 sequence (P18507 40-475): as the sequence (P18507 40-475) above
T2 sequence (P14867 28-456): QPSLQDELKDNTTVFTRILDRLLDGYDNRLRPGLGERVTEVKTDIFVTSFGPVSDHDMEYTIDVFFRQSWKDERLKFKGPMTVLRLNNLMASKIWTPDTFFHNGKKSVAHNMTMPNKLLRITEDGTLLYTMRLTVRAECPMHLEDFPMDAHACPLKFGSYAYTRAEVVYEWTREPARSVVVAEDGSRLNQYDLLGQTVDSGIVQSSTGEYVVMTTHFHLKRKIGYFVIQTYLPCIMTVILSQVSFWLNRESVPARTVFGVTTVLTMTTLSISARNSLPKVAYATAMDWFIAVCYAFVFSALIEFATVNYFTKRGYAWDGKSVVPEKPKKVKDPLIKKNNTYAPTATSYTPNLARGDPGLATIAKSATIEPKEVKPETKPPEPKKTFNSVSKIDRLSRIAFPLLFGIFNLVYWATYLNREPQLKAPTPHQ
T2 sequence (P47870 25-512 partner limits assumed): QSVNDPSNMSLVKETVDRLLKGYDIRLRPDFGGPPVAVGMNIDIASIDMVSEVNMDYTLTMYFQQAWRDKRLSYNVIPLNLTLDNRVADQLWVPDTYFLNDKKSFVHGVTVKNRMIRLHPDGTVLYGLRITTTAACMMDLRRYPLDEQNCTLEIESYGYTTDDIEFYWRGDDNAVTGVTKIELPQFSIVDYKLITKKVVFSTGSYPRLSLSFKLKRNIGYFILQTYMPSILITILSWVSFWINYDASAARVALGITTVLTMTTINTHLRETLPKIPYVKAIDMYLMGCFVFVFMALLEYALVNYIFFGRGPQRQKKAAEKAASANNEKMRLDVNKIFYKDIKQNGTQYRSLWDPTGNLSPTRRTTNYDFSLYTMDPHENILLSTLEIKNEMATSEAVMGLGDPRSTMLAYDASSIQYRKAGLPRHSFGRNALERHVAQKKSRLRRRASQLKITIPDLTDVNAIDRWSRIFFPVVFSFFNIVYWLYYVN
T2 sequence (P18507 40-475): as the sequence (P18507 40-475) above

| Ki [1] [nM] | Relative Potentiation for GABAA1 (GABAA receptor α1β2γ2) | Relative Potentiation for GABAA2 (GABAA receptor α2β3γ2) | Compound |
| --- | --- | --- | --- |
| 5.46 | −0.043 | 0.21 | COc1cccc(C#N)c1-c1cccc2c(N)c3c(nc12)CN(C1CCC1)C3=O [2-(9-Amino-2-cyclobutyl-1-oxo-2,3-dihydro-1H-pyrrolo[3,4-b]quinolin-5-yl)-3-methoxybenzonitrile] |
| 6.2 | −0.02 | 0.21 | N#Cc1ccc(F)cc1-c1cccc2c(N)c3c(nc12)CN(C1CCC1)C3=O [2-(9-Amino-2-cyclobutyl-1-oxo-2,3-dihydro-1H-pyrrolo[3,4-b]quinolin-5-yl)-4-fluorobenzonitrile] |
| 4.19 | −0.024 | 0.11 | N#Cc1cc(F)ccc1-c1cccc2c(N)c3c(nc12)CN(C1CCC1)C3=O [2-(9-Amino-2-cyclobutyl-1-oxo-2,3-dihydro-1H-pyrrolo[3,4-b]quinolin-5-yl)-5-fluorobenzonitrile] |
| 0.905 | −0.016 | 0.18 | COc1cccc(-c2cccc3c(N)c4c(nc23)CN(C2CCC2)C4=O)c1C#N [2-(9-Amino-2-cyclobutyl-1-oxo-2,3-dihydro-1H-pyrrolo[3,4-b]quinolin-5-yl)-6-methoxybenzonitrile] |
| 5.75 | 0.062 | 0.27 | N#Cc1ccccc1-c1cccc2c(N)c3c(nc12)CN(C1CCCC1)C3=O [2-(9-Amino-2-cyclopentyl-1-oxo-2,3-dihydro-1H-pyrrolo[3,4-b]quinolin-5-yl)-benzonitrile] |
| 16.3 | −0.064 | 0.087 | N#Cc1ccccc1-c1cccc2c(N)c3c(nc12)CN(C1CC1)C3=O [2-(9-Amino-2-cyclopropyl-1-oxo-2,3-dihydro-1H-pyrrolo[3,4-b]quinolin-5-yl)-benzonitrile] |
| 30.7 | 0.15 | 0.21 | CCCN1Cc2nc3c(-c4ccccc4C#N)cccc3c(N)c2C1=O [2-(9-amino-1-oxo-2-propyl-2,3-dihydro-1H-pyrrolo[3,4-b]quinolin-5-yl)benzonitrile] |
| 15.6 | −0.038 | 0.17 | N#Cc1ccc(-c2cccc3c(N)c4c(nc23)CN(C2CCC2)C4=O)cn1 [5-(9-Amino-2-cyclobutyl-1-oxo-2,3-dihydro-1H-pyrrolo[3,4-b]quinolin-5-yl)-pyridine-2-carbonitrile] |
| 2.39 | 0.005 | 0.15 | N#Cc1ccc(-c2cccc3c(N)c4c(nc23)CN(C2CCC2)C4=O)nc1 [6-(9-Amino-2-cyclobutyl-1-oxo-2,3-dihydro-1H-pyrrolo[3,4-b]quinolin-5-yl)-nicotinonitrile] |
| 10.3 | 0.088 | 0.15 | COc1ccc(CN2Cc3nc4c(-c5c(F)cccc5OC)cccc4c(N)c3C2=O)cc1Cl [9-Amino-2-(3-chloro-4-methoxybenzyl)-5-(2-fluoro-6-methoxyphenyl)-2,3-dihydropyrrolo[3,4-b]quinolin-1-one] |
| 7.62 | −0.052 | 0.1 | Cc1cccc(-c2cccc3c(N)c4c(nc23)C(O)N(C2CCC2)C4=O)n1 (stereo not drawn) [9-Amino-2-cyclobutyl-3-hydroxy-5-(6-methylpyridin-2-yl)-2,3-dihydropyrrolo[3,4-b]quinolin-1-one] |
| 3.91 | 0.017 | 0.43 | Cc1nn(C)cc1-c1cccc2c(N)c3c(nc12)CN(C1CCC1)C3=O [9-Amino-2-cyclobutyl-5-(1,3-dimethyl-1H-pyrazol-4-yl)-2,3-dihydropyrrolo[3,4-b]quinolin-1-one] |
| 3.76 | 0.01 | 0.18 | Cn1cc(-c2cccc3c(N)c4c(nc23)CN(C2CCC2)C4=O)cn1 [9-Amino-2-cyclobutyl-5-(1-methyl-1H-pyrazol-4-yl)-2,3-dihydropyrrolo[3,4-b]quinolin-1-one] |
| 0.953 | 0.11 | 0.4 | COc1ncc(-c2c(F)ccc3c(N)c4c(nc23)CN(C2CCC2)C4=O)c(OC)n1 [9-Amino-2-cyclobutyl-5-(2,4-dimethoxypyrimidin-5-yl)-6-fluoro-2,3-dihydropyrrolo[3,4-b]quinolin-1-one] |
| 3.35 | 0.087 | 0.47 | COc1cnc(OC)c(-c2cccc3c(N)c4c(nc23)CN(C2CCC2)C4=O)c1 [9-Amino-2-cyclobutyl-5-(2,5-dimethoxypyridin-3-yl)-2,3-dihydropyrrolo[3,4-b]quinolin-1-one] |
| 1.43 | −0.023 | 0.13 | COc1cc(F)c(-c2cccc3c(N)c4c(nc23)CN(C2CCC2)C4=O)c(F)c1 [9-Amino-2-cyclobutyl-5-(2,6-difluoro-4-methoxyphenyl)-2,3-dihydropyrrolo[3,4-b]quinolin-1-one] |
| 0.732 | 0.033 | 0.21 | Nc1c2c(nc3c(-c4ccc(F)nc4F)cccc13)CN(C1CCC1)C2=O [9-Amino-2-cyclobutyl-5-(2,6-difluoropyridin-3-yl)-2,3-dihydropyrrolo[3,4-b]quinolin-1-one] |
| 4.19 | 0.062 | 0.26 | COc1cccc(-c2cccc3c(N)c4c(nc23)CN(C2CCC2)C4=O)c1F [9-Amino-2-cyclobutyl-5-(2-fluoro-3-methoxyphenyl)-2,3-dihydropyrrolo[3,4-b]quinolin-1-one] |
| 1.34 | 0.1 | 0.29 | COc1ccc(F)c(-c2cccc3c(N)c4c(nc23)CN(C2CCC2)C4=O)c1 [9-Amino-2-cyclobutyl-5-(2-fluoro-5-methoxyphenyl)-2,3-dihydropyrrolo[3,4-b]quinolin-1-one] |
| 4.26 | −0.017 | 0.3 | Cc1ccc(-c2cccc3c(N)c4c(nc23)CN(C2CCC2)C4=O)c(F)n1 [9-Amino-2-cyclobutyl-5-(2-fluoro-6-methylpyridin-3-yl)-2,3-dihydropyrrolo[3,4-b]quinolin-1-one] |
| 2.56 | −0.002 | 0.24 | Nc1c2c(nc3c(-c4cccnc4F)cccc13)CN(C1CCC1)C2=O [9-Amino-2-cyclobutyl-5-(2-fluoropyridin-3-yl)-2,3-dihydropyrrolo[3,4-b]quinolin-1-one] |

| Compound | Ki [1] [nM] | Relative Potentiation for GABAA1 (GABAA receptor α1β2γ2) | Relative Potentiation for GABAA2 (GABAA receptor α2β3γ2) |
| --- | --- | --- | --- |
| N#Cc1cncc(-c2cccc3c(N)c4c(nc23)CN(C2CCC2)C4=O)c1 [5-(9-Amino-2-cyclobutyl-1-oxo-2,3-dihydro-1H-pyrrolo[3,4-b]quinolin-5-yl)-nicotinonitrile] | 5.85 | 0.048 | 0.21 |
